Literature values as cited in patent US20150133410A1, “TOPICAL OPHTHALMIC, OTIC, AND NASAL COMPOSITIONS OF CIPROFLOXACIN” (priority 2013, published 2015).
Like-named read-outs stand apart in the source and are kept apart here.

Conditions: aqueous solutions of about 0.2 to about 1 weight percent

pH above which crystalline precipitation of ciprofloxacin occurs (5° C.): above 5 | pH above which crystalline precipitation of ciprofloxacin occurs (room temperature): above 5.5
Compound: O=C(O)c1cn(C2CC2)c2cc(N3CCNCC3)c(F)cc2c1=O [ciprofloxacin]
